Tests used:
Assay type in all cases: cell-based
HCT116 = test: Inhibition of cell proliferation, HCT116; conditions: Homo sapiens, HCT-116; 72 h treatment; methylene blue or CellTiter-Glo
P388 = test: Inhibition of cell proliferation, P388; conditions: Mouse leukemia, 72 h, methylene blue or CellTiter-Glo
Method: (§1) II. Inhibition of Cell Proliferation by PLK1 Inhibitors.
(§2) Exponentially growing cell lines of different tumor origins, cultured in appropriate media containing 10% fetal bovine serum at 37° C. in a 5% CO2 incubator were plated in 96 or 384-well plates. Twenty four hours post-plating, cells were treated with different concentrations of test compounds ranging from 20 μM to 0.04 nM. Several wells were left untreated as a control. Seventy two hours post-treatment, cell numbers were determined using different techniques; 100 μl per well of methylene blue (Sigma M9140) (0.5% in 50:50 Ethanol:water), or 10-100 μl per well of CellTiter-Glo (Promega #G7573), depending on well size. For methylene blue staining, stain was incubated at room temperature for 30 minutes before plates were rinsed and dye solubilized in 1% N-lauroyl sarcosine, sodium salt, (Sigma L5125, in PBS). Plates were read on a microplate reader, measuring the OD at 620 nm. For CellTiter-Glo, plates were incubated at room temperature for 15 minutes and the chemiluminescent signal was read on the Victor V or Envison 2100 reader.
(§3) Percent inhibition of cell growth was expressed as percent proliferation relative to 100% proliferation (control). Concentration of test compound that inhibited 50% of cell growth (IC50) was determined by 4 parameter fit of data using XLfit, (value of no cell control was substracted from all samples for background). The data are shown in Table 1 and Table 2 below and represent a compilation of several different experiments each performed using the general parameters outlined above, although minor variations may have been employed in some instances, in Table 1 and Table 2, +=IC50>1 μM; ++=IC50 0.5-1 μM: +++=IC50<0.5 μM.

COLO205 = test: Inhibition of cell proliferation, COLO205; conditions: Homo sapiens, COLO 205; Colon; 72 h; methylene blue or CellTiter-Glo
Method: as §1, §2, §3

HT29 = test: Inhibition of cell proliferation, HT29; conditions: Homo sapiens, HT-29; Colon; 72 h; methylene blue or CellTiter-Glo
Method: as §1, §2, §3

SKOV-3 = test: Inhibition of cell proliferation, SKOV-3; conditions: Homo sapiens, SK-OV-3; Ovarian; 72 h; methylene blue or CellTiter-Glo
Method: as §1, §2, §3

MX-1 = test: Inhibition of cell proliferation, MX-1; conditions: Homo sapiens, MX1; Breast; 72 h; methylene blue or CellTiter-Glo
Method: as §1, §2, §3

IC50 (HCT116)	SMILES	other results
< 500 nM	C[C@@H](Oc1cc(-n2cnc3cc(Cl)ccc32)sc1C(N)=O)c1cccc(OC2CCN(C)CC2)c1Cl [Example 3, 5-(5-Chloro-1H-benzimidazol-1-yl)-3-((1R)-1-{2-chloro-3-[(1-methylpiperidin-4-yl)oxy]phenyl}ethoxy)thiophene-2-carboxamide]	IC50 (P388): < 500 nM; IC50 (COLO205): < 500 nM; IC50 (HT29): < 500 nM; IC50 (SKOV-3): < 500 nM; IC50 (MX-1): < 500 nM
< 500 nM	Cc1cc(-c2ccc3c(c2)ncn3-c2cc(O[C@H](C)c3cccc(OC4CCNCC4)c3Cl)c(C(N)=O)s2)ccn1 [Example 49, 3-({(1R)-1-[2-Chloro-3-(4-piperidinyloxy)phenyl]ethyl}oxy)-5-[5-(2-methyl-4-pyridinyl)-1H-benzimidazol-1-yl]-2-thiophenecarboxamide]	IC50 (COLO205): < 500 nM; IC50 (HT29): < 500 nM; IC50 (SKOV-3): < 500 nM; IC50 (MX-1): < 500 nM
< 500 nM	C[C@@H](Oc1cc(-n2cnc3cc(OC(F)(F)F)ccc32)sc1C(N)=O)c1cccc(OC2CCN(C)CC2)c1Cl [Example 62, 3-[((1R)-1-{2-chloro-3-[(1-methyl-4-piperidinyl)oxy]phenyl}ethyl)oxy]-5-{5-[(trifluoromethyl)oxy]-1H-benzimidazol-1-yl}-2-thiophenecarboxamide]	–
< 500 nM	C[C@@H](Oc1cc(-n2cnc3ccc(OC(F)(F)F)cc32)sc1C(N)=O)c1cccc(OC2CCNCC2)c1Cl [Example 63, 3-({(1R)-1-[2-chloro-3-(4-piperidinyloxy)phenyl]ethyl}oxy)-5-[6-[(trifluoromethyl)oxy]-1H-1-benzimidazol-1-yl}-2-thiophenecarboxamide]	–
< 500 nM	C[C@@H](Oc1cc(-n2cnc3ccc(OC(F)(F)F)cc32)sc1C(N)=O)c1cccc(OC2CCN(C)CC2)c1Cl [Example 64, 3-[((1R)-1-(2-chloro-3-[(1-methyl-4-piperidinyl)oxy]phenyl}ethyl)oxy]-5-{6-[(trifluoromethyl)oxy]-1H-benzimidazol-1-yl}-2-thiophenecarboxamide]	–
< 500 nM	C[C@@H](Oc1cc(-n2cnc3cc(F)c(F)cc32)sc1C(N)=O)c1cccc(OC2CCNCC2)c1Cl [Example 65, 3-({(1R)-1-[2-chloro-3-(4-piperidinyloxy)phenyl]ethyl}oxy)-5-(5,6-difluoro-1H-benzimidazol-1-yl)-2-thiophenecarboxamide]	–
< 500 nM	C[C@@H](Oc1cc(-n2cnc3cc(F)c(F)cc32)sc1C(N)=O)c1cccc(OC2CCN(C)CC2)c1Cl [Example 66, 3-[((1R)-1-(2-chloro-3-[(1-methyl-4-piperidinyl)oxy]phenyl}ethyl)-oxy]-5-(5,6-difluoro-1H-benzimidazol-1-yl)-2-thiophenecarboxamide]	IC50 (P388): < 500 nM; IC50 (COLO205): < 500 nM; IC50 (HT29): < 500 nM; IC50 (SKOV-3): < 500 nM; IC50 (MX-1): < 500 nM
< 500 nM	C[C@@H](Oc1cc(-n2cnc3cc(Cl)c(F)cc32)sc1C(N)=O)c1cccc(OC2CCNCC2)c1Cl [Example 67]	–
< 500 nM	C[C@@H](Oc1cc(-n2cnc3cc(Cl)c(F)cc32)sc1C(N)=O)c1cccc(OC2CCN(C)CC2)c1Cl [Example 68, 5-(5-Chloro-6-fluoro-1H-benzimidazol-1-yl)-3-[((1R)-1-{2-chloro-3-[(1-methyl-4-piperidinyl)oxy]phenyl}ethyl)oxy]-2-thiophenecarboxamide]	–
< 500 nM	C[C@@H](Oc1cc(-n2cnc3cc(F)c(Cl)cc32)sc1C(N)=O)c1cccc(OC2CCNCC2)c1Cl [Example 69, 5-(6-Chloro-5-fluoro-1H-benzimidazol-1-yl)-3-({(1R)-1-[2-chloro-3-(4-piperidinyloxy)phenyl]ethyl}oxy)-2-thiophenecarboxamide]	–
< 500 nM	C[C@@H](Oc1cc(-n2cnc3cc(F)c(Cl)cc32)sc1C(N)=O)c1cccc(OC2CCN(C)CC2)c1Cl [Example 70, 5-(6-Chloro-5-fluoro-1H-benzimidazol-1-yl)-3[((1R)-1-(2-chloro-3-[(1methyl-4-piperidinyl)oxy]phenyl}ethyl)oxy]-2-thiophenecarboxamide]	–
< 500 nM	C[C@@H](Oc1cc(-n2cnc3cc(Cl)c(Cl)cc32)sc1C(N)=O)c1cccc(OC2CCNCC2)c1Cl [Example 71, 3-({(1R)-1-[2-Chloro-3-(4-piperidinyloxy)phenyl]ethyl}oxy)-5-(5,6-dichloro-1H-benzimidazol-1-yl)-2-thiophenecarboxamide]	–
< 500 nM	C[C@@H](Oc1cc(-n2cnc3cc(Cl)c(Cl)cc32)sc1C(N)=O)c1cccc(OC2CCN(C)CC2)c1Cl [Example 72, 3-[((1R)-1-(2-chloro-3-[(1-methyl-4-piperidinyl)oxy]phenyl}ethyl)oxy]-5-(5,6-dichloro-1H-benzimidazol-1-yl)-2-thiophenecarboxamide]	–
> 1000 nM	CC(Oc1cc(-n2cnc3cc(-c4cnn(C)c4)ccc32)sc1C(N)=O)c1ccnc(OC2CCN(C)CC2)c1 (stereo not drawn) [Example 80]	–
> 1000 nM	Cn1cc(-c2ccc3c(c2)ncn3-c2cc(OCc3cccc(OC4CCNCC4)c3)c(C(N)=O)s2)cn1 [Example 83, 5-[5-(1-Methyl-1H-pyrazol-4-yl)-1H-benzimidazol-1-yl]-3-({[3-(4-piperidinyloxy)phenyl]methyl}oxy)-2-thiophenecarboxamide]	–
500 to 1000 nM	CN1CCC(Oc2cccc(COc3cc(-n4cnc5cc(-c6cnn(C)c6)ccc54)sc3C(N)=O)c2)CC1 [Example 84, 3-[({3-[(1Methyl-4piperidinyl)oxy]phenyl}methyl)oxy]-5-[5-(1-methyl-1H-pyrazol-4-yl)-1H-benzimidazol-1-yl]-2-thiophenecarboxamide]	–
> 1000 nM	CC(Oc1cc(-n2cnc3cc(-c4cnn(C)c4)ccc32)sc1C(N)=O)c1cc(OC2CCNCC2)ccn1 (stereo not drawn) [Example 85, 5-[5-(1-Methyl-1H-pyrazol-4-yl)-1H-benzimidazol-1-yl]-3-({1-[4-(4-piperidinyloxy)-2-pyridinyl]ethyl}oxy)-2-thiophenecarboxamide]	–
< 500 nM	Cc1nnc(-c2ccc3c(c2)ncn3-c2cc(O[C@H](C)c3cccc(OC4CCNCC4)c3Cl)c(C(N)=O)s2)o1 [Example 87, 3-({(1R)-1-(2-Chloro-3-(4-piperidinyloxy)phenyl]ethyl}oxy)-5-[5-(5-methyl-1,3,4-oxadiazol-2-yl)-1H-benzimidazol-1-yl]-2-thiophenecarboxamide]	–
< 500 nM	Cc1nnc(-c2ccc3c(c2)ncn3-c2cc(O[C@H](C)c3cccc(OC4CCN(C)CC4)c3Cl)c(C(N)=O)s2)o1 [Example 88]	–

Source: patent US20100075960A1 (priority 2006, published 2010)
